According to patent US7220864B2, “Dihydronaphthalene derivative compounds and agent comprising the derivative as active ingredient” (Ono Pharmaceutical Co., Ltd., priority 2000, dated 2007):

Tests used:
human PPAR α = target: T1, human PPAR α (Homo sapiens, UniProt Q07869); experiment: Luciferase assay using human PPAR α (PPAR α agonistic activity); format: cell-based; conditions: compound 10 μM; CV-1 cells with Gal4-human PPAR α LBD chimera and luciferase reporter; luciferase activity of carbacyclin (10 μM) defined as 1.0
T1 construct: expressed in transfected cells; host or cells: CV-1 cells
T1 sequence (Q07869 167-468): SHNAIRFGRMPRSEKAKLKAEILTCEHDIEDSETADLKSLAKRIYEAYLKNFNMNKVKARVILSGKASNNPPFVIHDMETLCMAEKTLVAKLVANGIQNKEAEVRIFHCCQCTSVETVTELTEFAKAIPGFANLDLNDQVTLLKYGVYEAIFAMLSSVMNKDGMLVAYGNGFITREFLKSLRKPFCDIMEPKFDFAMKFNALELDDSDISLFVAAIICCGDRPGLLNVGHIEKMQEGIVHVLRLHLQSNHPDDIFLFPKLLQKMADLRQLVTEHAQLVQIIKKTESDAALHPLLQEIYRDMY

human PPAR γ = target: T2, human PPAR γ (Homo sapiens, UniProt P37231); experiment: Luciferase assay using human PPAR γ (PPAR γ agonistic activity); format: cell-based; conditions: compound 10 μM; CV-1 cells with Gal4-human PPAR γ LBD chimera and luciferase reporter; luciferase activity of troglitazone (10 μM) defined as 1.0
T2 construct: expressed in transfected cells; host or cells: CV-1 cells
T2 sequence (P37231 204-505): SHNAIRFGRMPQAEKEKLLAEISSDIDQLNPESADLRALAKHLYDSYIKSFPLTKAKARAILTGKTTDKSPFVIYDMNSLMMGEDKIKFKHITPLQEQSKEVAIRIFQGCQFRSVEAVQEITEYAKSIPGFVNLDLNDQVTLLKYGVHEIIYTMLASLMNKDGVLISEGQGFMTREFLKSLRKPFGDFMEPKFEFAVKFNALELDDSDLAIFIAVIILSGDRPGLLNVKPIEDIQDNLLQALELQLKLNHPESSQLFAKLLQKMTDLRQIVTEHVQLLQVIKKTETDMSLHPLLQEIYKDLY

Q: Which results are given for `O=C(O)CCCCC1=CCCc2c(OCc3ccc4ccccc4n3)cccc21` [comprative compound]?
A: Relative Activity to a positive control compound (carbacyclin = 1) (human PPAR α): 0.01; Relative Activity to a positive control compound (troglitazone = 1) (human PPAR γ): 0.004
